Assay results as given in PubChem BioAssay (NCI).
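Exposure lasted 48 hours, with cells grown in 96-well plates and compounds tested at five concentrations. GI50 is the concentration that inhibits growth by half. TGI marks complete inhibition of growth.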

Experiments:
Experiment in all cases: NCI-60 cell line screen, 48 h
786-0 renal = tested on: 786-0 renal
A498 renal = tested on: A498 renal
A549 NSCLC = tested on: A549 NSCLC
ACHN renal = tested on: ACHN renal
BT-549 breast = tested on: BT-549 breast
CAKI-1 renal = tested on: CAKI-1 renal
CCRF-CEM leukemia = tested on: CCRF-CEM leukemia
COLO 205 colon = tested on: COLO 205 colon
DU-145 prostate = tested on: DU-145 prostate
EKVX NSCLC = tested on: EKVX NSCLC
HCC-2998 colon = tested on: HCC-2998 colon
HCT-116 colon = tested on: HCT-116 colon
HCT-15 colon = tested on: HCT-15 colon
HL-60(TB) leukemia = tested on: HL-60(TB) leukemia
HOP-62 NSCLC = tested on: HOP-62 NSCLC
HOP-92 NSCLC = tested on: HOP-92 NSCLC
HS 578T breast = tested on: HS 578T breast
HT29 colon = tested on: HT29 colon
IGROV1 ovarian = tested on: IGROV1 ovarian
K-562 leukemia = tested on: K-562 leukemia
KM12 colon = tested on: KM12 colon
LOX IMVI melanoma = tested on: LOX IMVI melanoma
M14 melanoma = tested on: M14 melanoma
MALME-3M melanoma = tested on: MALME-3M melanoma
MCF7 breast = tested on: MCF7 breast
MDA-MB-231 breast = tested on: MDA-MB-231 breast
MDA-MB-435 = tested on: MDA-MB-435
MOLT-4 leukemia = tested on: MOLT-4 leukemia
NCI-H226 lung = tested on: NCI-H226 lung
NCI-H23 lung = tested on: NCI-H23 lung
NCI-H460 lung = tested on: NCI-H460 lung
NCI-H522 lung = tested on: NCI-H522 lung
NCI/ADR-RES ovarian = tested on: NCI/ADR-RES ovarian
OVCAR-3 ovarian = tested on: OVCAR-3 ovarian
OVCAR-4 ovarian = tested on: OVCAR-4 ovarian
OVCAR-5 ovarian = tested on: OVCAR-5 ovarian
OVCAR-8 ovarian = tested on: OVCAR-8 ovarian
PC-3 prostate = tested on: PC-3 prostate
RPMI-8226 leukemia = tested on: RPMI-8226 leukemia
RXF 393 renal = tested on: RXF 393 renal
SF-268 CNS = tested on: SF-268 CNS
SF-295 CNS = tested on: SF-295 CNS
SF-539 CNS = tested on: SF-539 CNS
SK-MEL-2 melanoma = tested on: SK-MEL-2 melanoma
SK-MEL-28 melanoma = tested on: SK-MEL-28 melanoma
SK-MEL-5 melanoma = tested on: SK-MEL-5 melanoma
SK-OV-3 ovarian = tested on: SK-OV-3 ovarian
SN12C renal = tested on: SN12C renal
SNB-19 CNS = tested on: SNB-19 CNS
SNB-75 CNS = tested on: SNB-75 CNS
SR leukemia = tested on: SR leukemia
SW-620 colon = tested on: SW-620 colon
TK-10 renal = tested on: TK-10 renal
U251 CNS = tested on: U251 CNS
UACC-257 melanoma = tested on: UACC-257 melanoma
UACC-62 melanoma = tested on: UACC-62 melanoma
UO-31 renal = tested on: UO-31 renal

Q: What does the source list for `CCN1C(=O)/C(=c2\sc3n(c2=O)C2C(NN=3)N(CC)C(=O)N2CC)c2ccccc21` (stereo not drawn)?
A: GI50 (786-0 renal): 663 nM; TGI (786-0 renal): 16900 nM; GI50 (A498 renal): 181 nM; TGI (A498 renal): 697 nM; GI50 (A549 NSCLC): 795 nM; TGI (A549 NSCLC): > 100000 nM; GI50 (ACHN renal): 726 nM; TGI (ACHN renal): > 47900 nM; GI50 (BT-549 breast): 1370 nM; TGI (BT-549 breast): 14400 nM; GI50 (CAKI-1 renal): 465 nM; TGI (CAKI-1 renal): 32200 nM; GI50 (CCRF-CEM leukemia): 433 nM; TGI (CCRF-CEM leukemia): > 100000 nM; GI50 (COLO 205 colon): 468 nM; TGI (COLO 205 colon): 11300 nM; GI50 (DU-145 prostate): 582 nM; TGI (DU-145 prostate): 29200 nM; GI50 (EKVX NSCLC): 851 nM; TGI (EKVX NSCLC): > 100000 nM; GI50 (HCC-2998 colon): 859 nM; TGI (HCC-2998 colon): > 76800 nM; GI50 (HCT-116 colon): 463 nM; TGI (HCT-116 colon): > 54300 nM; GI50 (HCT-15 colon): 394 nM; TGI (HCT-15 colon): > 100000 nM; GI50 (HL-60(TB) leukemia): 303 nM; TGI (HL-60(TB) leukemia): 1010 nM; GI50 (HOP-62 NSCLC): 786 nM; TGI (HOP-62 NSCLC): > 42600 nM; GI50 (HOP-92 NSCLC): 1130 nM; TGI (HOP-92 NSCLC): 25600 nM; GI50 (HS 578T breast): 341 nM; TGI (HS 578T breast): 31600 nM; GI50 (HT29 colon): 369 nM; TGI (HT29 colon): > 100000 nM; GI50 (IGROV1 ovarian): 574 nM; TGI (IGROV1 ovarian): > 65500 nM; GI50 (K-562 leukemia): 362 nM; TGI (K-562 leukemia): > 100000 nM; GI50 (KM12 colon): 469 nM; TGI (KM12 colon): > 73400 nM; GI50 (LOX IMVI melanoma): 666 nM; TGI (LOX IMVI melanoma): 26600 nM; GI50 (M14 melanoma): 347 nM; TGI (M14 melanoma): 21700 nM; GI50 (MALME-3M melanoma): 596 nM; TGI (MALME-3M melanoma): > 100000 nM; GI50 (MCF7 breast): 357 nM; TGI (MCF7 breast): > 100000 nM; GI50 (MDA-MB-231 breast): 1440 nM; TGI (MDA-MB-231 breast): 19300 nM; GI50 (MDA-MB-435): 199 nM; TGI (MDA-MB-435): 449 nM; GI50 (MOLT-4 leukemia): 820 nM; TGI (MOLT-4 leukemia): > 100000 nM; GI50 (NCI-H226 lung): 736 nM; TGI (NCI-H226 lung): 22800 nM; GI50 (NCI-H23 lung): 808 nM; TGI (NCI-H23 lung): 17600 nM; GI50 (NCI-H460 lung): 402 nM; TGI (NCI-H460 lung): > 100000 nM; GI50 (NCI-H522 lung): 384 nM; TGI (NCI-H522 lung): 6990 nM; GI50 (NCI/ADR-RES ovarian): 411 nM; TGI (NCI/ADR-RES ovarian): 13800 nM; GI50 (OVCAR-3 ovarian): 323 nM; TGI (OVCAR-3 ovarian): 3320 nM; GI50 (OVCAR-4 ovarian): 5480 nM; TGI (OVCAR-4 ovarian): > 100000 nM; GI50 (OVCAR-5 ovarian): 2020 nM; TGI (OVCAR-5 ovarian): > 100000 nM; GI50 (OVCAR-8 ovarian): 665 nM; TGI (OVCAR-8 ovarian): > 100000 nM; GI50 (PC-3 prostate): 460 nM; TGI (PC-3 prostate): > 100000 nM; GI50 (RPMI-8226 leukemia): 366 nM; GI50 (RXF 393 renal): 279 nM; TGI (RXF 393 renal): 814 nM; GI50 (SF-268 CNS): 2570 nM; TGI (SF-268 CNS): > 100000 nM; GI50 (SF-295 CNS): 377 nM; TGI (SF-295 CNS): 6640 nM; GI50 (SF-539 CNS): 271 nM; TGI (SF-539 CNS): 937 nM; GI50 (SK-MEL-2 melanoma): 3210 nM; TGI (SK-MEL-2 melanoma): 44200 nM; GI50 (SK-MEL-28 melanoma): 907 nM; TGI (SK-MEL-28 melanoma): > 100000 nM; GI50 (SK-MEL-5 melanoma): 463 nM; TGI (SK-MEL-5 melanoma): 7440 nM; GI50 (SK-OV-3 ovarian): 2120 nM; TGI (SK-OV-3 ovarian): > 55700 nM; GI50 (SN12C renal): 615 nM; TGI (SN12C renal): > 100000 nM; GI50 (SNB-19 CNS): 750 nM; TGI (SNB-19 CNS): 63000 nM; GI50 (SNB-75 CNS): 189 nM; TGI (SNB-75 CNS): 856 nM; GI50 (SR leukemia): 357 nM; TGI (SR leukemia): > 100000 nM; GI50 (SW-620 colon): 426 nM; TGI (SW-620 colon): > 100000 nM; GI50 (TK-10 renal): 5970 nM; TGI (TK-10 renal): 24600 nM; GI50 (U251 CNS): 577 nM; TGI (U251 CNS): 30100 nM; GI50 (UACC-257 melanoma): 22400 nM; TGI (UACC-257 melanoma): > 100000 nM; GI50 (UACC-62 melanoma): 426 nM; TGI (UACC-62 melanoma): 30000 nM; GI50 (UO-31 renal): 846 nM; TGI (UO-31 renal): > 100000 nM
